US20070149535A1, “Protein kinase inhibitors” (ONCALIS AG, priority 2004, published 2007)

Key:
Assay in all cases: Yeast growth assay, specificity profiling;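 as to EGFR (L858R) growth restoration: Parenthesized + marks a result obtained in a different yeast background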
Format in all cases: cell-based
EGFR (L858R) = target: T1, EGFR (L858R) (Homo sapiens, UniProt P00533, L858R); design: key: (+) in a different yeast background; details: in a different yeast background;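 also: Parenthesized + marks a result obtained in a different yeast background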
T1 construct: expressed in transfected cells; host or cells: yeast
Protocol: Specificity Profiling: Yeast Growth Assay
The yeast growth assay was performed as described in “Method for the identification and/or validation of receptor tyrosine kinase inhibitors” PCT/CH03/00694 (2004/10/24), section “Modes for Carrying out the Invention, Experiment 1 and Experiment 2.
Briefly, yeast cells carrying plasmids with the RTK of interest were grown in glucose containing medium (repressing expression). The cultures were diluted into galactose containing medium, which induces the expression of the kinase. Expression of the kinase inhibits growth of the yeast cells, which allows for positive selection of kinase inhibitors restoring growth of cells. Compounds were titrated at 7 concentrations between 0.2 and 100 μM.
Specificity profiling of compounds, using the yeast growth assay method described above. “−” indicates no growth restoration i.e. no activity against the particular kinase, “+”, “++”, and “+++” indicate activity detected by restoration of growth, classified into three categories of potency according to the maximal level of growth restoration reached and the concentration at which the maximal growth restoration is reached.

EphB2 = target: T2, EphB2 (Homo sapiens, UniProt P29323); design: key: “−” indicates no growth restoration i.e. no activity against the particular kinase; “+”, “++”, and “+++” indicate activity detected by restoration of growth, classified into three categories of potency; “+”, “++”, and “+++” indicate activity detected by restoration of growth, classified into three categories of potency; “+”, “++”, and “+++” indicate activity detected by restoration of growth, classified into three categories of potency; details: 7 concentrations between 0.2 and 100 μM
T2 construct: expressed in transfected cells; host or cells: yeast
T2 sequence (P29323 19-1055): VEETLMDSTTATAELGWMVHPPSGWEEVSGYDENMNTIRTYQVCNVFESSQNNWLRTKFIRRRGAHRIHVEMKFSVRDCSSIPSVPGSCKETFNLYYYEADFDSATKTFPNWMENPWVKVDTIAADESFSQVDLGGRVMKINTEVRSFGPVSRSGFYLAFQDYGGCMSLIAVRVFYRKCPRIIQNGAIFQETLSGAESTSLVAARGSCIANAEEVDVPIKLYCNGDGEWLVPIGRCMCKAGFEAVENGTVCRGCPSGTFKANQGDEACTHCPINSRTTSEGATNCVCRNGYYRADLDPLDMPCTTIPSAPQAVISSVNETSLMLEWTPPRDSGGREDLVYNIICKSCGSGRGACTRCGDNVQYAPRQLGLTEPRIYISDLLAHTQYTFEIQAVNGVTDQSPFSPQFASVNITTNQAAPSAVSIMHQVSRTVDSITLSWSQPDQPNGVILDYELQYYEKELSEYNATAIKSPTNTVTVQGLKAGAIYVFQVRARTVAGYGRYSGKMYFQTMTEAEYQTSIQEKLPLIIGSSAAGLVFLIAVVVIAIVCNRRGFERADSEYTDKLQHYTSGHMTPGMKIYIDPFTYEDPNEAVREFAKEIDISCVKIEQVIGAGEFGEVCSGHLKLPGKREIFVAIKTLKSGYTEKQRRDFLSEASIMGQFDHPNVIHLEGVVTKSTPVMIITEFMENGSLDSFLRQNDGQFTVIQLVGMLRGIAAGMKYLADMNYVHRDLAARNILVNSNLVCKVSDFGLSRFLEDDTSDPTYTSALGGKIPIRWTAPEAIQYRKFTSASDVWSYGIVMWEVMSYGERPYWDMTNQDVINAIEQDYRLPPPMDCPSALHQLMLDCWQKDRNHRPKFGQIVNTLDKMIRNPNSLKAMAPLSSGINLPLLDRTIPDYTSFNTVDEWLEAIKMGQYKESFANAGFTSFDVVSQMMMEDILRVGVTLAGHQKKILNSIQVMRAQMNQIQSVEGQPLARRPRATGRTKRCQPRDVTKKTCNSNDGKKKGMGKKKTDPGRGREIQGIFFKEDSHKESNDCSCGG
Summary of the method: (§1)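 Compounds titrated at 7 concentrations spanning 0.2 to 100 μM were tested on yeast whose plasmid-borne RTK, induced by galactose after glucose repression, inhibits growth. Categories −, +, ++, +++ reflect maximal growth recovery and the concentration achieving it.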

TEK = target: T3, TEK (Homo sapiens, UniProt Q02763); design: key: “−” indicates no growth restoration i.e. no activity against the particular kinase; “+”, “++”, and “+++” indicate activity detected by restoration of growth, classified into three categories of potency; “+”, “++”, and “+++” indicate activity detected by restoration of growth, classified into three categories of potency; “+”, “++”, and “+++” indicate activity detected by restoration of growth, classified into three categories of potency; details: 7 concentrations between 0.2 and 100 μM
T3 construct: expressed in transfected cells; host or cells: yeast
T3 sequence (Q02763 23-1124): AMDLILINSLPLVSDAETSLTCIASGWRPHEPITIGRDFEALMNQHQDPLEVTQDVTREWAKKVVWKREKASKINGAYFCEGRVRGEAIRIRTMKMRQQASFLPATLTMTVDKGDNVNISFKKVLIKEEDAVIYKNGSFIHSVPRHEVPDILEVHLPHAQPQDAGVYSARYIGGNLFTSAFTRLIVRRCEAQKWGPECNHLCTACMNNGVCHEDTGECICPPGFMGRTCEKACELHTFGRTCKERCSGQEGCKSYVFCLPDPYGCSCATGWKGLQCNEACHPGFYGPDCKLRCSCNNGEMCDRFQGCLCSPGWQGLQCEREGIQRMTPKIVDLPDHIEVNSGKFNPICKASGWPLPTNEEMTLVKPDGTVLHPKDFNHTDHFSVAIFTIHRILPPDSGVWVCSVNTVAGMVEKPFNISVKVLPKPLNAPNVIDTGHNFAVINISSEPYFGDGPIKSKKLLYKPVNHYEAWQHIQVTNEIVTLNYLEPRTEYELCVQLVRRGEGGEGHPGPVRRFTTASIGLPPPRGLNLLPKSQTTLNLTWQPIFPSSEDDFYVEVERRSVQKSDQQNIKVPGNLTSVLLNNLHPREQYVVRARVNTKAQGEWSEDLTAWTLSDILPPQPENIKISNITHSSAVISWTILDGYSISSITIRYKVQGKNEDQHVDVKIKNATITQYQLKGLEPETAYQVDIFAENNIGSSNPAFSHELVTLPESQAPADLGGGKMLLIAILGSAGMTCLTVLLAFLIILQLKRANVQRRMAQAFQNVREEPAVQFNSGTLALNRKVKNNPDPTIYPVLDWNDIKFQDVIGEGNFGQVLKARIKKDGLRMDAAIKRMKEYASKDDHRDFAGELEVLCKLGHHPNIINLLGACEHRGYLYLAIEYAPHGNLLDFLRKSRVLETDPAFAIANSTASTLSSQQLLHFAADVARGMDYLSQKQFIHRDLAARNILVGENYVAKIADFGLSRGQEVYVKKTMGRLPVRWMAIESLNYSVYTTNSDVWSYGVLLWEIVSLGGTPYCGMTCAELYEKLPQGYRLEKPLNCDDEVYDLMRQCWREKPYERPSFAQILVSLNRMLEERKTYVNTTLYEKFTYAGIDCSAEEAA
Summary of the method: as §1

InsR = target: T4, InsR (Homo sapiens, UniProt P06213); design: key: “−” indicates no growth restoration i.e. no activity against the particular kinase; “+”, “++”, and “+++” indicate activity detected by restoration of growth, classified into three categories of potency; “+”, “++”, and “+++” indicate activity detected by restoration of growth, classified into three categories of potency; “+”, “++”, and “+++” indicate activity detected by restoration of growth, classified into three categories of potency; details: 7 concentrations between 0.2 and 100 μM
T4 construct: expressed in transfected cells; host or cells: yeast
T4 sequence (P06213 28-1382): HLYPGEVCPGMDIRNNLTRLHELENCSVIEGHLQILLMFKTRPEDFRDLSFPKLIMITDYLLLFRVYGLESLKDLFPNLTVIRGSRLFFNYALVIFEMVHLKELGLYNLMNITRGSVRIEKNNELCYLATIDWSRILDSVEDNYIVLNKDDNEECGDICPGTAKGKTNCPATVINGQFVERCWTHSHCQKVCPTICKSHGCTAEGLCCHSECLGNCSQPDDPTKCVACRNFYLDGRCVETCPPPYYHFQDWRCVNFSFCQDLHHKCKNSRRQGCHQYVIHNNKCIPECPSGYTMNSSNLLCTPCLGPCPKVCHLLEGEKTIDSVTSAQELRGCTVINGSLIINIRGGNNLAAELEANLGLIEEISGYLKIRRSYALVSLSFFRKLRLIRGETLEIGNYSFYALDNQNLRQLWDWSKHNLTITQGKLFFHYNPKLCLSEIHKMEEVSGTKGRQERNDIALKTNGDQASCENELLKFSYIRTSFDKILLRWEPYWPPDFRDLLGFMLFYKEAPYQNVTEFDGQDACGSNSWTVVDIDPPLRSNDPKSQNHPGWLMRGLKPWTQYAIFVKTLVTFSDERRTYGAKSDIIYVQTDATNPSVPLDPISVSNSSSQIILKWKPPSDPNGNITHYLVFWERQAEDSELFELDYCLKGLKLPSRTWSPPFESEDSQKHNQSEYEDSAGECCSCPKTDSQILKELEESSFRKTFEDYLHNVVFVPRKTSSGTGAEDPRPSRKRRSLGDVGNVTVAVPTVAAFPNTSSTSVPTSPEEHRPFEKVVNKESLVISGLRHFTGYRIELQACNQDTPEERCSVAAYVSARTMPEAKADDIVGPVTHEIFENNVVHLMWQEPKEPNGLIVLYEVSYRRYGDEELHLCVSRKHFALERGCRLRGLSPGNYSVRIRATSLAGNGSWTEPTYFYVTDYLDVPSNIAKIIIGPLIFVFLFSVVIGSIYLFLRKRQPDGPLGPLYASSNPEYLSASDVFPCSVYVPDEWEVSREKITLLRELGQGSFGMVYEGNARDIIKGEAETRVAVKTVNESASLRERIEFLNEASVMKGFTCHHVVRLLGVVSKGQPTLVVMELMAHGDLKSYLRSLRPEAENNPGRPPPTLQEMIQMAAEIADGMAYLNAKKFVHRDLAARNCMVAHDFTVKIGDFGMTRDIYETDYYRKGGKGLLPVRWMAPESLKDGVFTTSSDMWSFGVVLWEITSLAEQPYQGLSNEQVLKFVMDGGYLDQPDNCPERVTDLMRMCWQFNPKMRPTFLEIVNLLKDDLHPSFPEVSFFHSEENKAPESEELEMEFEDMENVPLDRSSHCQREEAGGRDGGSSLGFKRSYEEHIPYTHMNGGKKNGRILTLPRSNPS
Summary of the method: as §1

Row | Compound | EGFR (L858R) growth restoration (EGFR (L858R)) | EphB2 growth restoration (EphB2) | TEK growth restoration (TEK) | InsR growth restoration (InsR)
1 | Fc1ccc(Nc2c(-c3ccccc3)nc3cnccn23)cc1F [compound 30, (3,4-Difluoro-phenyl)-(2-phenyl-imidazo[1,2-a]pyrazin-3-yl)-amine] | (+) | + | − | −
2 | c1ccc(Nc2c(-c3ccc(N4CCOCC4)cc3)nc3cnccn23)cc1 [compound 38, [2-(4-Morpholin-4-yl-phenyl)-imidazo[1,2-a]pyrazin-3-yl]-phenyl-amine] | (+) | ++ | − | +
3 | COc1cccc(-c2nc3c(C)nccn3c2Nc2cccc(Cl)c2)c1 [compound 48, (3-Chloro-phenyl)-[2-(3-methoxy-phenyl)-8-methyl-imidazo[1,2-a]pyrazin-3-yl]-amine] | (+) | +++ | − | −
4 | COc1cccc(-c2nc3c(C)nccn3c2Nc2cccc(C)c2)c1 [compound 42, [2-(3-Methoxy-phenyl)-8-methyl-imidazo[1,2-a]pyrazin-3-yl]-m-tolyl-amine] | (+) | +++ | − | −
5 | CC(C)c1nc2cnccn2c1Nc1cccc(Cl)c1 [compound 12, (3-Chloro-phenyl)-(2-isopropyl-imidazo[1,2-a]pyrazin-3-yl)-amine] | (+) | + | − | −
6 | Fc1cccc(Nc2c(-c3ccccc3)nc3cnccn23)c1 [compound 26, (3-Fluoro-phenyl)-(2-phenyl-imidazo[1,2-a]pyrazin-3-yl)-amine] | (+) | + | − | −
